Patent publication US20160304552A1, “MODIFIED NUCLEIC ACID MOLECULES AND USES THEREOF” (MODERNA THERAPEUTICS, INC., priority 2013, published 2016)

Legend:
HeLa cells [1] = assay: Transfection in HeLa cells, human GCSF modRNA (GCSF ELISA of supernatant); type: cell-based; conditions: Table 22, 250 ng modRNA, 18 h to 22 h
Description: (§1) The day before transfection, 20.000 HeLa cells (ATCC no. CCL-2; Manassas, Va.) were harvested by treatment with Trypsin-EDTA solution (LifeTechnologies, Grand Island, N.Y.) and seeded in a total volume of 100 ul EMEM medium (supplemented with 10% FCS and 1× Glutamax) per well in a 96-well cell culture plate (Corning, Manassas, Va.). The cells were grown at 37° C. in 5% CO2 atmosphere overnight. Next day, 83 ng of Luciferase modRNA or 250 ng of human GCSF modRNA, harboring chemical modifications on the bases or the ribose units, were diluted in 10 ul final volume of OPTI-MEM (LifeTechnologies, Grand Island, N.Y.). Lipofectamine 2000 (LifeTechnologies, Grand Island, N.Y.) was used as transfection reagent and 0.2 μl were diluted in 10 ul final volume of OPTI-MEM. After 5 min incubation at room temperature, both solutions were combined and incubated additional 15 min at room temperature. Then the 20 μl were added to the 100 ul cell culture medium containing the HeLa cells. The plates were then incubated as described before.
(§2) After 18 h to 22 h incubation, cell culture supernatants of cells expressing human GCSF or human EPO were collected and centrifuged at 10.000 rcf for 2 min. The cleared supernatants were transferred and analyzed with a human GCSF-specific or EPO ELISA kit (both from R&D Systems, Minneapolis, Minn.; Cat. #s SCS50, DEP00, respectively) according to the manufacturer instructions. All samples were diluted until the determined values were within the linear range of the human GCSF or EPO ELISA standard curve.

[2] = tested on: Rabbit Reticulocyte Lysate; assay: In vitro translation screen, firefly Luciferase modRNA (luciferase assay, relative light units); type: biochemical; conditions: Table 20; 250 ng modRNA, 45 min, 30° C.
Description: (§3) The in vitro translation assay was done with the Rabbit Reticulocyte Lysate (nuclease-treated) kit (Promega, Madison, Wis.; Cat. #L4960) according to the manufacturer's instructions. The reaction buffer was a mixture of equal amounts of the amino acid stock solutions devoid of Leucine or Methionine provided in the kit.
(§4) The modRNAs of firefly Luciferase, human GCSF and human EPO, harboring chemical modifications on either the bases or the ribose units, were diluted in sterile nuclease-free water to a final concentration of 250 ng in 2.5 ul (Stock 100 ng/μl). The modRNA (250 ng) was added to the mixture of freshly prepared Rabbit Reticulocyte Lysate and reaction buffer.
After 45 min incubation, the reaction was stopped by placing the plate on ice. Aliquots of the in vitro translation reaction containing luciferase modRNA were transferred to white opaque polystyrene 96-well plates (Corning, Manassas, Va.; Cat. # CLS3912) and combined with 100 ul complete luciferase assay solution (Promega, Madison, Wis.). The volumes of the in vitro translation reactions were adjusted or diluted until no more than 2 million relative light units per well were detected for the strongest signal producing samples. […] The plate reader was a BioTek Synergy H1 (BioTek, Winooski, Vt.).

HeLa cells [3] = assay: Transfection in HeLa cells, Luciferase modRNA (luciferase assay, relative light units); type: cell-based, human; conditions: Table 22, 83 ng modRNA, Lipofectamine 2000, 18 h to 22 h
Description: as §1
After 18 h to 22 h incubation, cells expressing luciferase were lysed with 100 μl Passive Lysis Buffer (Promega, Madison, Wis.) according to manufacturer instructions. Aliquots of the lysates were transferred to white opaque polystyrene 96-well plates (Corning, Manassas, Va.) and combined with 100 ul complete luciferase assay solution (Promega, Madison, Wis.). The lysate volumes were adjusted or diluted until no more than 2 mio relative light units per well were detected for the strongest signal producing samples. […] The plate reader was a BioTek Synergy H1 (BioTek, Winooski, Vt.).

[4] = tested on: Rabbit Reticulocyte Lysate; assay: In vitro translation screen, human GCSF modRNA (GCSF ELISA); type: biochemical; conditions: Table 20; 250 ng modRNA, 45 min, 30° C.
Description: as §3, §4
(§5) Aliquots of the in vitro translation reaction containing human GCSF modRNA or human EPO mRNA were transferred and analyzed with a human GCSF-specific or EPO ELISA kit (both from R&D Systems, Minneapolis, Minn.; Cat. #s SCS50, DEP00 respectively) according to the manufacturer instructions. All samples were diluted until the determined values were within the linear range of the human GCSF or EPO ELISA standard curve.

HeLa cells [5] = assay: Transfection in HeLa cells, human EPO modRNA (EPO ELISA of supernatant); type: cell-based; conditions: Table 22, 18 h to 22 h
Description: as §1, §2

[6] = tested on: Rabbit Reticulocyte Lysate; assay: In vitro translation screen, human EPO modRNA (EPO ELISA); type: biochemical; conditions: Table 20; 250 ng modRNA, 45 min, 30° C.
Description: as §3, §4, §5

T7 RNA polymerase = T7 RNA polymerase (Escherichia phage T7, UniProt P00573); assay: In vitro transcription yields of modified mRNA; type: biochemical; conditions: for EPO In Vitro Transcription yield: EPO mRNA made with the modified NTP(s); for GCSF In Vitro Transcription yield: GCSF mRNA made with the modified NTP(s); for Luc In Vitro Transcription yield: Luciferase mRNA made with the modified NTP(s)
Description: The in vitro transcription reaction generates mRNA containing modified nucleotides or modified RNA. The input nucleotide triphosphate (NTP) mix is made in-house using natural and unnatural NTPs.
A typical in vitro transcription reaction includes the following:
Incubation at 37° C. for 3 hr-5 hrs.
The crude IVT mix may be stored at 4° C. overnight for cleanup the next day. 1 U of RNase-free DNase is then used to digest the original template. After 15 minutes of incubation at 37° C., the mRNA is purified using Ambion's […]™ Kit (Austin, Tex.) following the manufacturer's instructions. This kit can purify up to 500 μg of RNA. Following the cleanup, the RNA is quantified using the NanoDrop and analyzed by agarose gel electrophoresis to confirm the RNA is the proper size and that no degradation of the RNA has occurred.
Modified mRNAs in TE buffer (1 μl) are used for Nanodrop UV absorbance readings to quantitate the yield of each modified mRNA from an in vitro transcription reaction (UV absorbance traces are not shown).

Sequence of T7 RNA polymerase (P00573 whole entry): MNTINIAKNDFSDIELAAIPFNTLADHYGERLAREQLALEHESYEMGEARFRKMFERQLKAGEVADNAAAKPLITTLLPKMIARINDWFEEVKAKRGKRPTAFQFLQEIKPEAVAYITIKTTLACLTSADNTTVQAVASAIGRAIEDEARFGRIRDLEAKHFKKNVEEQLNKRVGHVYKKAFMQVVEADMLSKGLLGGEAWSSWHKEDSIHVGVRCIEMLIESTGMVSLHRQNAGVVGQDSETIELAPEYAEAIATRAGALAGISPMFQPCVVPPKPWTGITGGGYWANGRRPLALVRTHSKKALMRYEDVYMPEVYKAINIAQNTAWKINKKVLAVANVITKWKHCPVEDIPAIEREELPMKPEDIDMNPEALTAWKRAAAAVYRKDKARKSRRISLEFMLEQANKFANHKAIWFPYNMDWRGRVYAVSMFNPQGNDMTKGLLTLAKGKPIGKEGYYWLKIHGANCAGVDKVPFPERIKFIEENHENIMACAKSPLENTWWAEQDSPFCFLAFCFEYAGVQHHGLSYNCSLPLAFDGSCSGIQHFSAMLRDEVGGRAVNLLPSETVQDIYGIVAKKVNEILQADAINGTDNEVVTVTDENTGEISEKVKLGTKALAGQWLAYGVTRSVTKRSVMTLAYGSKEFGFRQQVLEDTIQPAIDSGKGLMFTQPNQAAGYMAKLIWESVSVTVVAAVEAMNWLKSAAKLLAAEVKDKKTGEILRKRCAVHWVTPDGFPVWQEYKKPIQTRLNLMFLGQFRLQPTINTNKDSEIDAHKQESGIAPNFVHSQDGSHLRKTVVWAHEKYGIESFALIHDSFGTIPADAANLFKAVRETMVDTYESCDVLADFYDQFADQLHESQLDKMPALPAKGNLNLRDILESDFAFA

Compound | GCSF Expression (HeLa cells [1]) | Luc Expression (RLUs) [2] | Luc Expression (RLUs) (HeLa cells [3]) | GCSF Expression [4] | Epo Expression (HeLa cells [5]) | Epo Expression [6] | EPO In Vitro Transcription yield (T7 RNA polymerase) | GCSF In Vitro Transcription yield (T7 RNA polymerase) | Luc In Vitro Transcription yield (T7 RNA polymerase)
CCn1cc([C@@H]2O[C@H](COP(=O)(O)OP(=O)(O)OP(=O)(O)O)C(O)C2O)c(=O)[nH]c1=O (stereo in doubt) [03601015003 (172), 1-Ethyl-pseudo-UTP] | 209300 pg/mL | 122 RLUs | 130.50 RLUs | 5700 pg/mL | 52780 pg/mL | 7894 pg/mL | 1.095 mg | 0.5464 mg | 0.6304 mg
CCCn1cc([C@@H]2O[C@H](COP(=O)(O)OP(=O)(O)OP(=O)(O)O)C(O)C2O)c(=O)[nH]c1=O (stereo in doubt) [03601015004 (173), 1-Propyl-pseudo-UTP] | 10000 pg/mL | 140 RLUs | – | 1613 pg/mL | 0.00 pg/mL | 838 pg/mL | 0.9920 mg | 0.5976 mg | 0.4971 mg
O=c1ccn([C@@H]2O[C@H](COP(=O)(O)OP(=O)(O)OP(=O)(O)O)C(O)C2O)c(=S)[nH]1 (stereo in doubt) [Compound 00901013008, 2-Thio-UTP] | 214300 pg/mL | 1181 RLUs | 423.00 RLUs | 3744 pg/mL | 182600 pg/mL | 1894 pg/mL | 0.3630 mg | 0.3359 mg | 0.2792 mg
O=c1[nH]c(=O)n([C@@H]2O[C@H](COP(=O)(O)OP(=O)(O)OP(=O)(O)O)C(O)C2O)cc1Br (stereo in doubt) [Compound 00901013009, 5-Bromo-UTP] | 118600 pg/mL | 218500 RLUs | 2731 RLUs | 21530 pg/mL | 210500 pg/mL | 18220 pg/mL | 0.2617 mg | 0.3566 mg | 0.3352 mg
NC/C=C/c1cn([C@@H]2O[C@H](COP(=O)(O)OP(=O)(O)OP(=O)(O)O)C(O)C2O)c(=O)[nH]c1=O (stereo in doubt) [Compound 00901013010, 5-Aminoallyl-UTP] | 40710 pg/mL | 14870 RLUs | 1946 RLUs | 3706 pg/mL | 67440 pg/mL | 1863 pg/mL | 0.3732 mg | 0.4206 mg | 0.3513 mg
O=c1ccn([C@@H]2O[C@H](COP(O)(=S)OP(=O)(O)OP(=O)(O)O)C(O)C2O)c(=O)[nH]1 (stereo in doubt) [Compound 00902013001, Alpha-thio-UTP] | 73570 pg/mL | 51180 RLUs | 937.0 RLUs | 20530 pg/mL | 190700 pg/mL | 14260 pg/mL | 0.2666 mg | 0.2605 mg | 0.3510 mg
